Laboratory results reported in the NIST ThermoML archive (doi:10.1021/je060271a).

Conditions: 303.16 K, Liquid, Vibrating tube method

CCCC(=O)OCC(COC(=O)CCC)(COC(=O)CCC)COC(=O)CCC [pentaerythritol tetrabutyrate]
Conditions	mass density [kg/m3]
6790.5 kPa	1046.6
6817.3 kPa	1046.7
6849.6 kPa	1046.6
6876.7 kPa	1046.6
6909 kPa	1046.7
6936.8 kPa	1046.6
6965.3 kPa	1046.7
6993.5 kPa	1046.7
7274.1 kPa	1047
7311.4 kPa	1046.9
7343 kPa	1046.9
7374.1 kPa	1046.9
7412.9 kPa	1047
7446.2 kPa	1047
7479.9 kPa	1047.1
7515.1 kPa	1047
7541.7 kPa	1047.1
7566.7 kPa	1047.1
7596.6 kPa	1047.2
7622.5 kPa	1047.1
7647.8 kPa	1047.1
7673.7 kPa	1047.1
7703.6 kPa	1047.1
7729.5 kPa	1047.2
7755.5 kPa	1047.2
7786.9 kPa	1047.3
7813.7 kPa	1047.3
7840.6 kPa	1047.2
7867.9 kPa	1047.3
7895 kPa	1047.2
7927.7 kPa	1047.2
7955 kPa	1047.3
7982.8 kPa	1047.3
8016.1 kPa	1047.4
8044.7 kPa	1047.3
8073.5 kPa	1047.3
8102.7 kPa	1047.4
8125 kPa	1047.5
8147.9 kPa	1047.5
8175.2 kPa	1047.5
8198.5 kPa	1047.5
8222.3 kPa	1047.4
8245.7 kPa	1047.6
8273.3 kPa	1047.4
8297.3 kPa	1047.5
8325.9 kPa	1047.5
8350.8 kPa	1047.6
8373.4 kPa	1047.6
8504.8 kPa	1047.7
8527.9 kPa	1047.7
8547 kPa	1047.6
8565.8 kPa	1047.7
8588.8 kPa	1047.8
8607.6 kPa	1047.8
8630.3 kPa	1047.7
8649.3 kPa	1047.8
8672.8 kPa	1047.8
8693.1 kPa	1047.8
8716 kPa	1047.9
8735.5 kPa	1047.8
8759.5 kPa	1047.9
8783.6 kPa	1047.9
8803.1 kPa	1047.9
8823.4 kPa	1047.9
8847.6 kPa	1047.9
8867.8 kPa	1048
8892.1 kPa	1047.9
8916.2 kPa	1047.9
8936.4 kPa	1047.9
8960.7 kPa	1048
8981.7 kPa	1047.9
9006.9 kPa	1047.9
9027.7 kPa	1048
9053.1 kPa	1047.9
9078.7 kPa	1048.1
9099.8 kPa	1048
9121 kPa	1048.1
9146.6 kPa	1048
9172.2 kPa	1048.1
9193.2 kPa	1048.1
9244.7 kPa	1048.2
9266.6 kPa	1048.2
9293.3 kPa	1048.3
9315.9 kPa	1048.3
9343.1 kPa	1048.2
9366.4 kPa	1048.3
9391.5 kPa	1048.3
9419 kPa	1048.4
9442.1 kPa	1048.2
9469.3 kPa	1048.3
9492.3 kPa	1048.3
9519.7 kPa	1048.4
9547.7 kPa	1048.4
9571.3 kPa	1048.5
9599.9 kPa	1048.3
9623.9 kPa	1048.5
9652 kPa	1048.3
9680.6 kPa	1048.5
9705 kPa	1048.4
9730.4 kPa	1048.5
9759.3 kPa	1048.5
9783.6 kPa	1048.5
9812.9 kPa	1048.6
9843 kPa	1048.5
9868 kPa	1048.4
9898.3 kPa	1048.5
9923.1 kPa	1048.5
9953.2 kPa	1048.6
9984.1 kPa	1048.6
10010 kPa	1048.7
10041 kPa	1048.7
10067 kPa	1048.7
10100 kPa	1048.8
10126 kPa	1048.6
10159 kPa	1048.7
10186 kPa	1048.8
10218 kPa	1048.7
10245 kPa	1048.7
10278 kPa	1048.8
10305 kPa	1048.7
10337 kPa	1048.9
10371 kPa	1048.7
10399 kPa	1048.8
10432 kPa	1048.9
10461 kPa	1048.9
10496 kPa	1048.9
10525 kPa	1048.8
10560 kPa	1048.9
10589 kPa	1049
10624 kPa	1049
10658 kPa	1049.1
10687 kPa	1049
10723 kPa	1049.1
10753 kPa	1049
10789 kPa	1049.2
10820 kPa	1049.1
10857 kPa	1049.1
10894 kPa	1049.1
10924 kPa	1049.2
10961 kPa	1049.3
10993 kPa	1049.2
11031 kPa	1049.3
11063 kPa	1049.3
11101 kPa	1049.3
11133 kPa	1049.4
11171 kPa	1049.3
11210 kPa	1049.3
11243 kPa	1049.3
11283 kPa	1049.4
11317 kPa	1049.5
11359 kPa	1049.5
11394 kPa	1049.4
11436 kPa	1049.6
11472 kPa	1049.6
11511 kPa	1049.6
11541 kPa	1049.5
11577 kPa	1049.6
11607 kPa	1049.6
11641 kPa	1049.7
11666 kPa	1049.6
11688 kPa	1049.6
11714 kPa	1049.7
11736 kPa	1049.8
11763 kPa	1049.7
11789 kPa	1049.7
11811 kPa	1049.8
11838 kPa	1049.7
11865 kPa	1049.9
11888 kPa	1049.8
11910 kPa	1049.8
11936 kPa	1049.9
11964 kPa	1049.8
11987 kPa	1049.8
12015 kPa	1049.9
12038 kPa	1049.9
12068 kPa	1049.8
12093 kPa	1049.9
12117 kPa	1050
12145 kPa	1050
12173 kPa	1050
12197 kPa	1050
12221 kPa	1050
12250 kPa	1050.1
12278 kPa	1050
12302 kPa	1050.2
12331 kPa	1050.1
12356 kPa	1050.1
12385 kPa	1050.2
12416 kPa	1050.1
12441 kPa	1050.1
12466 kPa	1050.1
12496 kPa	1050.2
12521 kPa	1050.1
12551 kPa	1050.3
12576 kPa	1050.2
12607 kPa	1050.3
12637 kPa	1050.3
12663 kPa	1050.3
12694 kPa	1050.2
12720 kPa	1050.2
12751 kPa	1050.3
12782 kPa	1050.3
12808 kPa	1050.4
12840 kPa	1050.4
12867 kPa	1050.4
12899 kPa	1050.5
12926 kPa	1050.4
12959 kPa	1050.5
12986 kPa	1050.6
13019 kPa	1050.6
13051 kPa	1050.6
13078 kPa	1050.5
13111 kPa	1050.6
13173 kPa	1050.6
13201 kPa	1050.6
13235 kPa	1050.5
13264 kPa	1050.6
13297 kPa	1050.5
13332 kPa	1050.7
13360 kPa	1050.6
13395 kPa	1050.8
13424 kPa	1050.7
13459 kPa	1050.9
13493 kPa	1050.9
13522 kPa	1050.8
13558 kPa	1050.8
13589 kPa	1050.9
13625 kPa	1050.9
13656 kPa	1050.9
13693 kPa	1050.9
13723 kPa	1051
13761 kPa	1051
13791 kPa	1050.9
13829 kPa	1050.9
13859 kPa	1051.1
13897 kPa	1051
13934 kPa	1051
13966 kPa	1050.9
14003 kPa	1051.1
14035 kPa	1051.2
14072 kPa	1051.1
14111 kPa	1051.1
14144 kPa	1051.1
14184 kPa	1051.2
14217 kPa	1051.3
14257 kPa	1051.4
14291 kPa	1051.4
14332 kPa	1051.2
14367 kPa	1051.3
14409 kPa	1051.4
14443 kPa	1051.4
14483 kPa	1051.4
14513 kPa	1051.5
14547 kPa	1051.5
14581 kPa	1051.5
14609 kPa	1051.5
14643 kPa	1051.4
14672 kPa	1051.4
14706 kPa	1051.5
14740 kPa	1051.5
14770 kPa	1051.6
14804 kPa	1051.6
14839 kPa	1051.7
14868 kPa	1051.5
14907 kPa	1051.6
14937 kPa	1051.7
14972 kPa	1051.7
15002 kPa	1051.8
15038 kPa	1051.9
15069 kPa	1051.7
15106 kPa	1051.8
15136 kPa	1051.8
15174 kPa	1051.7
15210 kPa	1051.9
15242 kPa	1051.9
15279 kPa	1051.8
15312 kPa	1051.9
15345 kPa	1051.9
15384 kPa	1052.1
15415 kPa	1052
15453 kPa	1052
15492 kPa	1052
15525 kPa	1052.1
15564 kPa	1052.2
15597 kPa	1052.1
15637 kPa	1052.1
15671 kPa	1052.1
15710 kPa	1052.1
15743 kPa	1052.1
15783 kPa	1052.3
15823 kPa	1052.2
15857 kPa	1052.2
15897 kPa	1052.3
